This is an account of results in patent publication US12679843B2, “Pyrrolopyrimidine amines as complement inhibitors” (BioCryst Pharmaceuticals, Inc., priority 2020, dated 2026).

A word on the IC50: it is the concentration needed to halve the response being measured.

In this assay the target is Factor D (Homo sapiens, UniProt P00746). As to the kind of experiment: Factor D esterolytic assay (Z-Lys-SBzl thioester substrate, DTNB, 405 nm). The following applies: substrate Z-Lys-SBzl 1.29 mM, 100 mM HEPES, 500 mM NaCl, pH 7.5, 10% DMSO, tested a minimum of three times. In kind it is biochemical. In short, it runs like this: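 Human Factor D hydrolysis of Z-Lys-SBzl (1.29 mM) monitored at 405 nm via DTNB thiol detection for 600 s, 690 nm background subtracted. Buffer 100 mM HEPES, 500 mM NaCl, pH 7.5, 10% DMSO; substrate added immediately or after room-temperature preincubation. IC50 from percent inhibition of rate, at least three tests.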
Sequence of Factor D (P00746 26-253): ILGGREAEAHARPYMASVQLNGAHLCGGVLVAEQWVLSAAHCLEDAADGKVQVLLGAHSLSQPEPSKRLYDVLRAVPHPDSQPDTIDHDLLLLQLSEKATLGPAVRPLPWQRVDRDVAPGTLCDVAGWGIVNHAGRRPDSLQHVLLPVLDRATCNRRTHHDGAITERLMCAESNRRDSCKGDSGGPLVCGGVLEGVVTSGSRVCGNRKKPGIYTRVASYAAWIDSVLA
For `Cc1cc(-c2cccnc2C(F)(F)F)cc2c3c(N)ncnc3n(CC(=O)N3[C@H](C(=O)Nc4cccc(Br)n4)C[C@@]4(C)C[C@@H]34)c12` [Compound 358c, (1R,3S,5R)-2-(2-(4-amino-8-methyl-6-(2-(trifluoromethyl)pyridin-3-yl)-9H-pyrimido[4,5-b]indol-9-yl)acetyl)-N-(6-bromopyridin-2-yl)-5-methyl-2-azabicyclo[3.1.0]hexane-3-carboxamide], the IC50 is 100 to 1000 nM.

`C[C@@]12C[C@@H](C(=O)Nc3cncc(Br)n3)N(C(=O)Cn3c4ccc(C(F)(F)F)cc4c4c(N)ncnc43)[C@@H]1C2` [Compound 261d, (1R,3S,5R)-2-(2-(4-amino-6-(trifluoromethyl)-9H-pyrimido[4,5-b]indol-9-yl)acetyl)-N-(6-bromopyrazin-2-yl)-5-methyl-2-azabicyclo[3.1.0]hexane-3-carboxamide]: the IC50 was below 100 nM.

For `Nc1ncnc2c1c(Br)cn2CC(=O)N1C[C@H](F)C[C@H]1C(=O)NCc1cccc(Cl)c1F` [Compound 116b, (2S,4R)-1-(2-(4-amino-5-bromo-7H-pyrrolo[2,3-d]pyrimidin-7-yl)acetyl)-N-(3-chloro-2-fluorobenzyl)-4-fluoropyrrolidine-2-carboxamide], the IC50 lay within 100 to 1000 nM.

Take `Nc1ncnc2c1ccn2CC(=O)N1C[C@H](F)C[C@H]1C(=O)Nc1cccc(Br)n1` [Compound 5e, (2S,4R)-1-(2-(4-amino-7H-pyrrolo[2,3-d]pyrimidin-7-yl)acetyl)-N-(6-bromopyridin-2-yl)-4-fluoropyrrolidine-2-carboxamide]: the IC50 was 100 to 1000 nM.

Consider `CN(C)c1nc(N)c2ncn(CC(=O)N3[C@@H]4C[C@@H]4C[C@H]3C(=O)NCc3cccc(Cl)c3F)c2n1` [Compound 96e, (1R,3S,5R)-2-(2-(6-amino-2-(dimethylamino)-9H-purin-9-yl)acetyl)-N-(3-chloro-2-fluorobenzyl)-2-azabicyclo[3.1.0]hexane-3-carboxamide], for which the half-maximal inhibitory concentration (IC50) was above 1000 nM.

As to `Nc1ncnc2c1ncn2CC(=O)N1[C@@H]2C[C@@H]2C[C@H]1C(=O)NCc1cccc(Cl)c1F` [Compound 91a, (1R,3S,5R)-2-(2-(6-amino-9H-purin-9-yl)acetyl)-N-(3-chloro-2-fluorobenzyl)-2-azabicyclo[3.1.0]hexane-3-carboxamide], the IC50 is below 100 nM.

As to `C[C@@]12C[C@@H](C(=O)Nc3cccc(Br)n3)N(C(=O)Cn3c4ccc(C(=O)O)cc4c4c(N)ncnc43)[C@@H]1C2` [Compound 161a, 4-amino-9-(2-((1R,3S,5R)-3-((6-bromopyridin-2-yl)carbamoyl)-5-methyl-2-azabicyclo[3.1.0]hexan-2-yl)-2-oxoethyl)-9H-pyrimido[4,5-b]indole-6-carboxylic acid], the IC50 was below 100 nM.

Turning to `Nc1ccnc2c1ccn2CC(=O)N1C[C@H](F)C[C@H]1C(=O)NCc1cccc(Cl)c1F` [Compound 131e, (2S,4R)-1-(2-(4-amino-1H-pyrrolo[2,3-b]pyridin-1-yl)acetyl)-N-(3-chloro-2-fluorobenzyl)-4-fluoropyrrolidine-2-carboxamide], the IC50 lay in the range of 100 to 1000 nM.

For `C[C@@H]1C[C@@H](C(=O)Nc2cccc(Br)n2)N(C(=O)Cn2c3ccc(C(F)(F)F)cc3c3c(N)ncnc32)C1` [Compound 206c, (2S,4R)-1-(2-(4-amino-6-(trifluoromethyl)-9H-pyrimido[4,5-b]indol-9-yl)acetyl)-N-(6-bromopyridin-2-yl)-4-methylpyrrolidine-2-carboxamide], the IC50 was in the range of 100 to 1000 nM.

As to `CN(C)c1ccc2c(c1)c1c(N)ncnc1n2CC(=O)N1[C@H](C(=O)Nc2cccc(Br)n2)C[C@@]2(C)C[C@@H]12` [Compound 215g, (1R,3S,5R)-2-(2-(4-amino-6-(dimethylamino)-9H-pyrimido[4,5-b]indol-9-yl)acetyl)-N-(6-bromopyridin-2-yl)-5-methyl-2-azabicyclo[3.1.0]hexane-3-carboxamide], the IC50 is below 100 nM.

Take `Cc1cc(C2CC2)cc2c3c(N)ncnc3n(CC(=O)N3[C@H](C(=O)Nc4cccc(Br)n4)C[C@@]4(C)C[C@@H]34)c12` [Compound 361a, (1R,3S,5R)-2-(2-(4-amino-6-cyclopropyl-8-methyl-9H-pyrimido[4,5-b]indol-9-yl)acetyl)-N-(6-bromopyridin-2-yl)-5-methyl-2-azabicyclo[3.1.0]hexane-3-carboxamide]: the IC50 was below 100 nM.

`N#Cc1cn(CC(=O)N2C[C@H](F)C[C@H]2C(=O)NCc2cccc(Cl)c2F)c2ncnc(N)c12` [Compound 130e, (2S,4R)-1-(2-(4-amino-5-cyano-7H-pyrrolo[2,3-d]pyrimidin-7-yl)acetyl)-N-(3-chloro-2-fluorobenzyl)-4-fluoropyrrolidine-2-carboxamide]: the IC50 lay within 100 to 1000 nM.

With `Cc1cc(F)c2c(c1)c1c(N)ncnc1n2CC(=O)N1[C@H](C(=O)Nc2cccc(Br)n2)C[C@@]2(C)C[C@@H]12` [Compound 392a, (1R,3S,5R)-2-(2-(4-amino-8-fluoro-6-methyl-9H-pyrimido[4,5-b]indol-9-yl)acetyl)-N-(6-bromopyridin-2-yl)-5-methyl-2-azabicyclo[3.1.0]hexane-3-carboxamide], the IC50 was below 100 nM.

On to `Cc1cc(-c2ccccc2)cc2c3c(N)ncnc3n(CC(=O)N3[C@@H]4C[C@@H]4C[C@H]3C(=O)Nc3cccc(Br)n3)c12` [Compound 229c, (1R,3S,5R)-2-(2-(4-amino-8-methyl-6-phenyl-9H-pyrimido[4,5-b]indol-9-yl)acetyl)-N-(6-bromopyridin-2-yl)-2-azabicyclo[3.1.0]hexane-3-carboxamide], for which the IC50 was below 100 nM.

Consider `CNC(=O)c1ccc2c(c1)c1c(N)ncnc1n2CC(=O)N1[C@@H]2C[C@@H]2C[C@H]1C(=O)Nc1cccc(Br)n1` [Compound 204a, 4-amino-9-(2-((1R,3S,5R)-3-((6-bromopyridin-2-yl)carbamoyl)-2-azabicyclo[3.1.0]hexan-2-yl)-2-oxoethyl)-N-methyl-9H-pyrimido[4,5-b]indole-6-carboxamide], for which the IC50 was below 100 nM.

`Cc1ncc(-c2cn(CC(=O)N3C[C@H](F)C[C@H]3C(=O)NCc3cccc(Cl)c3F)c3ncnc(N)c23)cn1` [Compound 117d, (2S,4R)-1-(2-(4-amino-5-(2-methylpyrimidin-5-yl)-7H-pyrrolo[2,3-d]pyrimidin-7-yl)acetyl)-N-(3-chloro-2-fluorobenzyl)-4-fluoropyrrolidine-2-carboxamide]: the IC50 fell in the range of 100 to 1000 nM.

For the compound `Nc1ncnc2c(CC(=O)N3C[C@H](F)C[C@H]3C(=O)NCc3cccc(Cl)c3F)cccc12` [Compound 138d, (2S,4R)-1-(2-(4-aminoquinazolin-8-yl)acetyl)-N-(3-chloro-2-fluorobenzyl)-4-fluoropyrrolidine-2-carboxamide], the IC50 was 100 to 1000 nM.

In the case of `Cc1ccc(Br)nc1NC(=O)[C@@H]1C[C@H]2C[C@H]2N1C(=O)Cn1c2ccc(C(F)(F)F)cc2c2c(N)ncnc21` [Compound 15a, (1R,3S,5R)-2-(2-(4-amino-6-(trifluoromethyl)-9H-pyrimido[4,5-b]indol-9-yl)acetyl)-N-(6-bromo-3-methylpyridin-2-yl)-2-azabicyclo[3.1.0]hexane-3-carboxamide], the IC50 was below 100 nM.
